Source: patent US9732088B2, “C2-carbocyclic iminothiazine dioxides as BACE inhibitors, compositions, and their use” (Merck Sharp & Dohme Corp., priority 2014, dated 2017)

Assays:
[1] = target: soluble human BACE-1 catalytic domain (Homo sapiens (Human), UniProt P56817); assay: BACE-1 Ki Assay (BACE-1 HTRF FRET Assay); format: biochemical; settings: Assay 1; Ki calculated from IC50 by Cheng-Prusoff
Protocol: Assay 1: BACE-1 Ki Assay (BACE-1 HTRF FRET Assay)
The compounds of the invention were determined to be potent inhibitors of BACE-1 using the following assay.
The following reagents were used in this assay. Na^+-Acetate pH 5.0; 1% Brij-35; Glycerol; Dimethyl Sulfoxide (DMSO); Recombinant human soluble BACE-1 catalytic domain (>95% pure); APP Swedish mutant peptide substrate (QSY7-APP^swe-Eu): QSY7-[…]-Europium-amide.
A homogeneous time-resolved FRET assay can be used to determine IC50 values for inhibitors of the soluble human BACE-1 catalytic domain. This assay monitors the increase of 620 nm fluorescence that resulted from BACE-1 cleavage of an APPswedish APP^swe mutant peptide FRET substrate (QSY7-[…]-Europium-amide). This substrate contains an N-terminal QSY7 moiety that serves as a quencher of the C-terminal Europium fluorophore (620 nm Em). In the absence of enzyme activity, 620 nm fluorescence is low in the assay and increased linearly over 3 hours in the presence of uninhibited BACE-1 enzyme. Inhibition of BACE-1 cleavage of the QSY7-APP^swe-Eu substrate by inhibitors is manifested as a suppression of 620 nm fluorescence.
Varying concentrations of inhibitors at 3× the final desired concentration in a volume of […] are preincubated with purified human BACE-1 catalytic domain (3 nM in 10 μl) for 30 minutes at 30° C. in reaction buffer containing 20 mM Na-Acetate pH 5.0, 10% glycerol, 0.1% Brij-35 and 7.5% DSMO. Reactions are initiated by addition of 10 μl of 600 nM QSY7-APP^swe-Eu substrate (200 nM final) to give a final reaction volume of 30 μl in a 384 well Nunc HTRF plate. The reactions are incubated at 30° C. for 1.5 hours. The 620 nm fluorescence is then read on a Rubystar HTRF plate reader (BMG Labtechnologies) using a […] delay followed by a 400 millisecond acquisition time window. Inhibitor IC50 values are derived from non-linear regression analysis of concentration response curves. Ki values are then calculated from IC50 values using the Cheng-Prusoff equation using a previously determined […] of 8 μM for the QSY7-APP^swe-Eu substrate at BACE-1. The example compounds of the invention were measured in this assay.

[2] = target: purified human autoBACE-2 (Homo sapiens (Human), UniProt Q9Y5Z0); assay: BACE-2 Assay (BACE-HTRF assay); format: biochemical; settings: Assay 2; Ki calculated from IC50 by Cheng-Prusoff; read-out: BACE2 Ki
Protocol: The compounds of the invention were determined to be potent inhibitors of BACE-2 using the following assay. Inhibitor IC50s at purified human autoBACE-2 are determined in a time-resolved endpoint proteolysis assay that measures hydrolysis of the QSY7-[…]-Eu-amide FRET peptide substrate (BACE-HTRF assay). BACE-mediated hydrolysis of this peptide results in an increase in relative fluorescence (RFU) at 620 nm after excitation with 320 nm light Inhibitor compounds, prepared at 3× the desired final concentration in 1×BACE assay buffer (20 mM sodium acetate pH 5.0, 10% glycerol, 0.1% Brij-35) supplemented with 7.5% DMSO are pre-incubated with an equal volume of autoBACE-2 enzyme diluted in 1×BACE assay buffer (final enzyme concentration 1 nM) in black 384-well NUNC plates for 30 minutes at 30° C. […] DMSO is present at […] final concentration in the assay. Following laser excitation of sample wells at 320 nm, the fluorescence signal at 620 nm is collected for 400 ms following a 50 μs delay on a RUBYstar HTRF plate reader (BMG Labtechnologies). Raw RFU data is normalized to maximum (1.0 nM BACE/DMSO) and minimum (no enzyme/DMSO) RFU values. IC50 values are determined by nonlinear regression analysis (sigmoidal dose response, variable slope) of percent inhibition data with minimum and maximum values set to 0 and 100 percent respectively. Similar IC50s are obtained when using raw RFU data. The Ki values are calculated from the IC50 using the Cheng-Prusoff equation.

BACE-1 = BACE-1 (Homo sapiens (Human), UniProt P56817); assay: BACE-1 Cellular Assay (Aβ in HEK293-APPswe/lon cells); format: cell-based; settings: 4 hours
Protocol: Assay 3: BACE-1 Cellular Assay
Certain compounds of the invention, identified in the tables herein, were determined to be potent inhibitors of BACE-1 in the following cellular assay. HEK293 cells are obtained from the American Type Culture Collection (ATCC) and stably transfected with the human amyloid precursor protein cDNA containing the FAD Swedish (enhances β-secretase processing) and London (enhances Aβ42 cleavage) mutations. A HEK293 stable clone with Aβ expression (HEK293-APP^swe/lon) is identified and maintained at 37° C., 5% CO2 in the ATCC-recommended growth media supplemented with hygromycin. […] Aβ40 or Aβ42 are measured in 15 μl of media using a mesoscale based ELISA assay. Full length Aβ40 and Aβ42 peptides are captured with the N-terminal specific biotinylated-WO2 monoclonal antibody and detected using either the ruthenylated Aβ40 C-terminal specific monoclonal antibody, G2-10 or the ruthenylated Aβ42 C-terminal specific monoclonal antibody G2-11 respectively. Raw electrochemiluminescnce values are measured using a Mesoscale Sector Imager plate reader and are plotted as a function of compound concentration. IC50 values are interpolated from the data using nonlinear regression analysis (Sigmoidal dose response fit with variable slope) of the data using GraphPad Prism software.

[3] = target: purified human Cathepsin-D (Homo sapiens (Human), UniProt P07339); assay: Cathepsin-D Assay (time-resolved FRET); format: biochemical; settings: Assay 4; Ki calculated from IC50 by Cheng-Prusoff;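 further: Europium-labelled peptide substrate with QSY7 quencher, cleavage read as 620 nm fluorescence after 30 min preincubation then 30 min reaction at 30 °C, pH 5.0, inhibition lowers signal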
purified human Cathepsin-D, sequence (P07339 65-412): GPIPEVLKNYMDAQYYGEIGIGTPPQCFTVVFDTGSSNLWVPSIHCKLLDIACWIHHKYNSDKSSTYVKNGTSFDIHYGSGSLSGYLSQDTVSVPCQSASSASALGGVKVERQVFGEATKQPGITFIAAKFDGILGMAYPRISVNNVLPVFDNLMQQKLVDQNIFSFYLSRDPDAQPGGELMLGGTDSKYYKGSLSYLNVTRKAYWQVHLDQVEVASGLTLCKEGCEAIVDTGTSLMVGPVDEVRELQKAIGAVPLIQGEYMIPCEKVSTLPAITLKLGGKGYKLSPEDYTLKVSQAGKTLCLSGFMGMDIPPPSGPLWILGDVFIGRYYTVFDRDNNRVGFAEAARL

soluble human BACE-1 catalytic domain, sequence (P56817 75-416): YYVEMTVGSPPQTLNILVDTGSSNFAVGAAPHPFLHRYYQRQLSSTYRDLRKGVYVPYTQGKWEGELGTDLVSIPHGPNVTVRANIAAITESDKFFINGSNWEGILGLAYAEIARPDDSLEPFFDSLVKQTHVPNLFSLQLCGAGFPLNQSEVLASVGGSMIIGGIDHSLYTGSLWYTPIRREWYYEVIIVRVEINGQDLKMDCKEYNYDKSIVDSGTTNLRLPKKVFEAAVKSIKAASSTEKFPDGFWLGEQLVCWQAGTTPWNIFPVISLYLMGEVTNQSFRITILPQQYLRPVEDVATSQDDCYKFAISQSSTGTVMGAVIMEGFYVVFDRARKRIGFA
purified human autoBACE-2, sequence (Q9Y5Z0 63-466): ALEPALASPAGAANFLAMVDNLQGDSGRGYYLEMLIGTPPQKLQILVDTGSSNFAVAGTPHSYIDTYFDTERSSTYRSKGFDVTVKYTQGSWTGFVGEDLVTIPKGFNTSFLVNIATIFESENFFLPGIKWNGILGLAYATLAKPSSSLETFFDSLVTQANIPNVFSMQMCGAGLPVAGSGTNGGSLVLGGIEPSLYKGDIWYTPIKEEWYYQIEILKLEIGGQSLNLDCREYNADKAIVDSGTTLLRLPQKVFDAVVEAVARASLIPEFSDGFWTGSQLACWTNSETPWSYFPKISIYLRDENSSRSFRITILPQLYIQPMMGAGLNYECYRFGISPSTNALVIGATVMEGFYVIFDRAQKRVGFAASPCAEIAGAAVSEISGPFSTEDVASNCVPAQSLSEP
BACE-1, sequence (P56817 46-501): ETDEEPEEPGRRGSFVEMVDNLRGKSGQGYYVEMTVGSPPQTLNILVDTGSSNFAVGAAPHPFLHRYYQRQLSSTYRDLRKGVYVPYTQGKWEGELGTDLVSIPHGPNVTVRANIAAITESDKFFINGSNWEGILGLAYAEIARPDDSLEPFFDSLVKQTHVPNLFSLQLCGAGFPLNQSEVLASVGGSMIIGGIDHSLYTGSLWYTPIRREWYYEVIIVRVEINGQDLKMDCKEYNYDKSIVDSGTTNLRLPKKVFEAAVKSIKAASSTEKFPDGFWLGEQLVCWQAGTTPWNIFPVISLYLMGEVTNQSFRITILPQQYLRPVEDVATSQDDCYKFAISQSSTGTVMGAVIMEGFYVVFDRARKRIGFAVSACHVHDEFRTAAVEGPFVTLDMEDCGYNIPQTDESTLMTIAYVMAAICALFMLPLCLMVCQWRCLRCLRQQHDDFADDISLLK

CC#CCOc1cnc2c(Nc3cc([C@]4(C)CS(=O)(=O)[C@@](C)(C5CC5)C(N)=N4)c(F)cn3)nccc2c1 [Example 10, 3-(but-2-yn-1-yloxy)-N-{4-[(3R,6S)-6-cyclopropyl-5-imino-3,6-dimethyl-1,1-dioxidothiomorpholin-3-yl]-5-fluoropyridin-2-yl}-1,7-naphthyridin-8-amine]
Ki [1]: 0.79 nM
Ki [2]: 0.64 nM
IC50 (BACE-1): 0.25 nM
Ki [3]: > 9400 nM

CC#CCOc1cnc2c(Nc3cnc(F)c([C@]4(C)CS(=O)(=O)[C@@](CF)(C5CC5)C(N)=N4)c3)nccc2c1 [Example 11, 3-(but-2-yn-1-yloxy)-N-{5-[(3R,6S)-6-cyclopropyl-6-(fluoromethyl)-5-imino-3-methyl-1,1-dioxidothiomorpholin-3-yl]-6-fluoropyridin-3-yl}-1,7-naphthyridin-8-amine]
Ki [1]: 0.91 nM
Ki [2]: 7.5 nM
IC50 (BACE-1): 4.1 nM
Ki [3]: 857 nM

COc1cnc2c(Nc3cnc(F)c([C@]4(C)CS(=O)(=O)[C@@](CF)(C5CC5)C(N)=N4)c3)nccc2c1 [Example 12, N-{5-[(3R,6S)-6-cyclopropyl-6-(fluoromethyl)-5-imino-3-methyl-1,1-dioxidothiomorpholin-3-yl]-6-fluoropyridin-3-yl}-3-methoxy-1,7-naphthyridin-8-amine]
Ki [1]: 6.1 nM
Ki [2]: 3.3 nM
IC50 (BACE-1): 99 nM
Ki [3]: 629 nM

CC#CCOc1cnc2c(Nc3cnc(F)c([C@]4(C)CS(=O)(=O)[C@@](CF)(C5CC5)C(N)=N4)c3)nccc2n1 [Example 13, 2-(but-2-yn-1-yloxy)-N-{5-[(3R,6S)-6-cyclopropyl-6-(fluoromethyl)-5-imino-3-methyl-1,1-dioxidothiomorpholin-3-yl]-6-fluoropyridin-3-yl}pyrido[3,4-b]pyrazin-5-amine]
Ki [1]: 0.65 nM
Ki [2]: 1.1 nM
IC50 (BACE-1): 6.6 nM
Ki [3]: 3380 nM

C[C@@]1(c2cc(Nc3ncnc4cc(Br)cnc34)ccc2F)CS(=O)(=O)[C@@](C)(C2CC2)C(N)=N1 [Example 15, 7-bromo-N-{3-[(3R,6S)-6-cyclopropyl-5-imino-3,6-dimethyl-1,1-dioxidothiomorpholin-3-yl]-4-fluorophenyl}pyrido[3,2-d]pyrimidin-4-amine]
Ki [1]: 1.8 nM
Ki [2]: 0.73 nM
IC50 (BACE-1): 3.4 nM
Ki [3]: 321 nM

C[C@@]1(c2cc(Nc3nccc4cc(Br)cnc34)ccc2F)CS(=O)(=O)[C@@](C)(C2CC2)C(N)=N1 [Example 17, 3-bromo-N-{3-[(3R,6S)-6-cyclopropyl-5-imino-3,6-dimethyl-1,1-dioxidothiomorpholin-3-yl]-4-fluorophenyl}-1,7-naphthyridin-8-amine]
Ki [1]: 1.4 nM
Ki [2]: 0.41 nM
IC50 (BACE-1): 16 nM
Ki [3]: 146 nM

COc1cnc2c(Nc3cc([C@]4(C)CS(=O)(=O)[C@@](C)(C5CC5)C(N)=N4)c(F)cn3)ncnc2c1 [Example 19, N-{4-[(3R,6S)-6-cyclopropyl-5-imino-3,6-dimethyl-1,1-dioxidothiomorpholin-3-yl]-5-fluoropyridin-2-yl}-7-methoxypyrido[3,2-d]pyrimidin-4-amine]
Ki [1]: 67 nM
Ki [2]: 21 nM
IC50 (BACE-1): 192 nM
Ki [3]: 9300 nM

COc1cnc2c(Nc3ccc(F)c([C@]4(C)CS(=O)(=O)[C@@](C)(C5CC5)C(N)=N4)c3)ncnc2c1 [Example 20, (2S,5R)-2-cyclopropyl-5-(2-fluoro-5-((7-methoxypyrido[3,2-d]pyrimidin-4-yl)amino)phenyl)-3-imino-2,5-dimethylthiomorpholine 1,1-dioxide]
Ki [1]: 3.7 nM
Ki [2]: 2.4 nM
IC50 (BACE-1): 5.3 nM
Ki [3]: 2160 nM

C[C@@]1(c2cc(Nc3nccc4cc(O)cnc34)ncc2F)CS(=O)(=O)[C@@](C)(C2CC2)C(N)=N1 [Example 25, (3R,6S)-5-amino-6-cyclopropyl-3-(5-fluoro-2-((3-hydroxy-1,7-naphthyridin-8-yl)amino)pyridin-4-yl)-3,6-dimethyl-3,6-dihydro-2H-1,4-thiazine 1,1-dioxide]
Ki [1]: 0.89 nM
Ki [2]: 0.59 nM
IC50 (BACE-1): 4.9 nM
Ki [3]: > 9400 nM

C[C@@]1(c2cc(Nc3nccc4cc(Cl)cnc34)ncc2F)CS(=O)(=O)[C@@](C)(C2CC2)C(N)=N1 [Example 27, (3R,6S)-5-amino-3-(2-((3-chloro-1,7-naphthyridin-8-yl)amino)-5-fluoropyridin-4-yl)-6-cyclopropyl-3,6-dimethyl-3,6-dihydro-2H-1,4-thiazine 1,1-dioxide]
Ki [1]: 10 nM
Ki [2]: 2.9 nM
IC50 (BACE-1): 180 nM
Ki [3]: > 9400 nM

COc1cnc2c(Nc3cnc(F)c([C@]4(C)CS(=O)(=O)[C@@](C)(C5CC5)C(N)=N4)c3)nccc2c1 [Example 32, (3R,6S)-5-amino-6-cyclopropyl-3-(2-fluoro-5-((3-methoxy-1,7-naphthyridin-8-yl)amino)pyridin-3-yl)-3,6-dimethyl-3,6-dihydro-2H-1,4-thiazine 1,1-dioxide]
Ki [1]: 6.9 nM
Ki [2]: 2.6 nM
IC50 (BACE-1): 24 nM
Ki [3]: 650 nM

C[C@@]1(c2cc(Nc3ccnc4cc(Cl)cnc34)ncc2F)CS(=O)(=O)[C@@](C)(C2CC2)C(N)=N1 [Example 33, (3R,6S)-5-amino-3-(2-((7-chloro-1,5-naphthyridin-4-yl)amino)-5-fluoropyridin-4-yl)-6-cyclopropyl-3,6-dimethyl-3,6-dihydro-2H-1,4-thiazine 1,1-dioxide]
Ki [1]: 6.2 nM
Ki [2]: 0.82 nM
IC50 (BACE-1): 27 nM
Ki [3]: 820 nM

C[C@@]1(c2cc(Nc3ncnc4cc(Br)cnc34)ncc2F)CS(=O)(=O)[C@@](C)(C2CC2)C(N)=N1 [Example 38, (3R,6S)-5-amino-3-(2-((7-bromopyrido[3,2-d]pyrimidin-4-yl)amino)-5-fluoropyridin-4-yl)-6-cyclopropyl-3,6-dimethyl-3,6-dihydro-2H-1,4-thiazine 1,1-dioxide]
Ki [1]: 8.2 nM
Ki [2]: 3.8 nM
IC50 (BACE-1): 110 nM
Ki [3]: 3200 nM
